Patent publication US20260000078A1, “ANTI-MICROBIAL SYSTEM” (The Procter & Gamble Company, priority 2024, published 2026)
Converted amounts (≈) assume the structure as drawn.

How the values were obtained:
Format in all cases: cell-based
[1] = tested on: Staphylococcus aureus ATCC #6538; assay: Minimum Inhibitory Concentration (MIC) assay with Minimum Biocidal Concentration (MBC); conditions: solvent DMSO; for MBC / MIC: Staphylococcus aureus, ATCC6538; for MBC: read-out: S. aureus MBC (ppm); for MIC: 24±2 hrs at 35° C., OD<50% of growth control, read-out: S. aureus MIC (ppm)
Method: The Minimum Inhibitory Concentration (MIC) assay is a 96-well high throughput method that determines the minimum concentration of an active required to inhibit the growth of microorganisms. Compounds are evaluated against the following microorganisms: Staphylococcus aureus ATCC #6538 (American Type Culture Collection, Manassas, Virginia, USA). To prepare solutions, the bacteria are streaked on Tryptic Soy Agar (TSA, Becton Dickinson DIFCO™ Tryptic Soy Agar, Franklin Lakes, NJ, USA) and incubated at 30-35° C. for 18-24 hrs. Confluent growth is transferred to saline (0.85% NaCl and turbidometrically adjusted to a target concentration of 10^7-10^8 CFU/ml. This inoculum solution is further diluted 1:1000 in Tryptic Soy Broth (TSB, Becton Dickinson, Franklin Lakes, NJ, USA) for assay use. Two-fold serial dilutions are prepared in Dimethylsulfoxide (DMSO, Thermo Scientific Pierce DMSO, Sequencing Grade) or sterile water for each test sample. In a sterile 96-well plate, each dilution is further diluted in broth inoculum such that each well contained 5% dilution and 95% broth inoculum. Bacteria and yeast plates were incubated on an orbital shaker (Heidolph Titramax 1000 Vibrating Platform Shaker, 200-300 rpm) for 24±2 hrs at 35° C. After incubation, the optical density (OD) of each well is measured in a spectrophotometer (Victor Nivo Multimode Plate Reader) at 600 nm. […] The MBC was determined as the most dilute concentration with no visible growth.

[2] = tested on: Escherichia coli ATCC 8739; assay: Minimal Kill Concentration (MKC) assay, 96 well plate; conditions: 20-minute contact time
Method: (§1) The MKC assay is a 96 well plate method to determine the minimum concentration of a test material or composition needed to kill Gram-negative and Gram-positive bacteria (Escherichia coli ATCC 8739 and Staphylococcus aureus ATCC 6538, respectively). The bacterial suspensions are prepared from 10× freezer stocks with 15% glycerol. The freezer stocks are centrifuged at 13,000×g (Eppendorf Centrifuge […] No. 5417 05483) for 1 minute. The supernatant is removed, and the cell pellet is resuspended in 1 mL saline (Sodium chloride solution 0.9%, Cytiva REF: Z1376), and then transferred to 9 mL saline. The target cfu/ml is 10^8, which is confirmed via serial diluting and plating on TSA plates (Tryptic Soy Agar-Sigma-Aldrich Cat #22091). Then 50 μL of bacteria is added to each well of a 96 well 0.5 mL V-Bottom plate (Greiner bio-one REF: 786201) to make a bacteria plate, one separate plate for each bacterium. The dilutions of the test compounds are prepared in a separate 96 well plate. The test compounds are tested at six dilutions in duplicates or with no replication diluted across the entire plate. The test compounds are prepared in Dimethyl Sulfoxide (Sigma Aldrich GR ACS Cat. No: MX1458-6) or sterile water at 2× the intended test concentration, and then serially diluted in the appropriate vehicle 1:2 across the plate using a multichannel. 50 μL from the test compound plate is added to each well in the bacteria plate all at once using an Integra VIAFLOW 96 channel pipette (Model: VIAFLO 96) and the Integra 300 μL Head (Part No. 6103). With addition of the 2× compounds bacteria plate, the compounds are diluted to a 1× test concentration. The addition of the test compounds to the bacteria wells starts the 20-minute contact time. The plates are mixed well using a Mix-Mate (Eppendorf SE). After 20 minutes, 1 μL from each well of the bacteria plate is transferred to premade Tryptic Soy Agar (TSA) plates (OmniTray Cell Culture Treated w/Lid Sterile, Cat. No: 165218) for spot plating using the Integra VIAFLOW 96 with the Integra 12.5 μL head (Part No. 6101). Then 4 μL from each well of the bacteria/compound plate is transferred to another 96 well plate containing 36 μL of neutralizer broth Modified Letheen Broth (BD Difco Letheen Broth, Modified REF 263010). The contact time is stopped at 20 minutes once the compound plate is neutralized. The plates are mixed well using a Mix-Mate and then 1 μL of the neutralizer+sample mix is transferred to a TSA OmniTray plate using the Integra VIAFLOW and Integra 12.5 μL head. The TSA spot plates are then incubated overnight for 20 hours at 37° C. in an Incubator. This process is done for both bacteria species. After overnight incubation, the plates are removed from the incubator and the results recorded by observing which dilutions had bacterial kill/growth. The last dilution that had kill for both replicates is recorded as the MKC. A positive control of Benzalkonium chloride (Sigma Aldrich Cat. No.: 12060-5G) and vehicle controls are always included in the test.

[3] = tested on: Staphylococcus aureus ATCC 6538; assay: as above; conditions: 20-minute contact time
Method: as §1

[4] = most dilute concentration with no visible growth on neutralizing agar

SMILES | MBC [1, 4] | MKC (ppm) E. coli ([2]; solvent water) | MKC (ppm) S. aureus ([3]; solvent water) | S. aureus MBC (ppm) [1, 4] | MKC (ppm) E. coli ([2]; solvent DMSO) | MKC (ppm) S. aureus ([3]; solvent DMSO) | MIC [1]
CCCCCCCC(O)CC(=O)O (racemic) [(±)-3-Hydroxydecanoic acid] | > 1130 µg/mL | 753 ppm | 753 ppm | – | – | – | –
CCCCCC(O)CC(=O)O (racemic) [(±)-3-Hydroxyoctanoic acid] | – | >641 ppm | >641 ppm | – | – | – | –
CCCCCCCCCC(O)CC(=O)O (racemic) [DL-β-Hydroxylauric acid] | – | >865 ppm | >865 ppm | 650 ppm | – | – | –
CCCCCCCCCCCC(O)CC(=O)O (racemic) [DL-β-Hydroxymyristic acid] | – | – | – | – | 122 ppm | 244 ppm | –
CCCCCCCCCCCCCC(O)CC(=O)O (racemic) [DL-β-Hydroxypalmitic acid] | – | – | – | – | 136 ppm | >1090 ppm | –
CCCCCCCCC[C@@H](O)CC(=O)O [(3R)-3-hydroxydodecanoic acid] | – | >865 ppm | 865 ppm | – | – | – | –
CCCCCC(CC(=O)O)O[C@@H]1O[C@@H](C)[C@H](O)[C@@H](O)[C@H]1O (stereo partly drawn) [RhaC8, 3-(((2R,3R,4R,5R,6S)-3,4,5-trihydroxy-6-methyltetrahydro-2H-pyran-2-yl)oxy)octanoic acid] | > 10000 µg/mL | >1225 ppm | >1225 ppm | – | – | – | 10000 µg/mL (≈ 32.6 mM)
CCCCCCCC(CC(=O)O)O[C@@H]1O[C@@H](C)[C@H](O)[C@@H](O)[C@H]1O (stereo partly drawn) [RhaC10, 3-(((2R,3R,4R,5R,6S)-3,4,5-trihydroxy-6-methyltetrahydro-2H-pyran-2-yl)oxy)decanoic acid] | > 10000 µg/mL | >1338 ppm | >1338 ppm | – | – | – | > 10000 µg/mL
CCCCCCCCCC(CC(=O)O)O[C@@H]1O[C@@H](C)[C@H](O)[C@@H](O)[C@H]1O (stereo partly drawn) [RhaC12, 3-(((2R,3R,4R,5R,6S)-3,4,5-trihydroxy-6-methyltetrahydro-2H-pyran-2-yl)oxy)dodecanoic acid] | > 10000 µg/mL | >1450 ppm | 725 ppm | – | – | – | 1250 µg/mL (≈ 3.45 mM)
CCCCCCCCCCCC(CC(=O)O)O[C@@H]1O[C@@H](C)[C@H](O)[C@@H](O)[C@H]1O (stereo partly drawn) [RhaC14, 3-(((2R,3R,4R,5R,6S)-3,4,5-trihydroxy-6-methyltetrahydro-2H-pyran-2-yl)oxy)tetradecanoic acid] | > 10000 µg/mL | – | – | – | 781 ppm | 781 ppm | 625 µg/mL (≈ 1.6 mM)
